Blank lines part the entries; values can stand above or below the compound they belong to.
Tests used:
[1] = biological target: T1, cGMP-dependent protein kinase 1 (Homo sapiens) (UniProt Q13976); assay: Inhibition of PKG-alpha (unknown origin) at 0.078 uM relative to control
T1 sequence (whole entry): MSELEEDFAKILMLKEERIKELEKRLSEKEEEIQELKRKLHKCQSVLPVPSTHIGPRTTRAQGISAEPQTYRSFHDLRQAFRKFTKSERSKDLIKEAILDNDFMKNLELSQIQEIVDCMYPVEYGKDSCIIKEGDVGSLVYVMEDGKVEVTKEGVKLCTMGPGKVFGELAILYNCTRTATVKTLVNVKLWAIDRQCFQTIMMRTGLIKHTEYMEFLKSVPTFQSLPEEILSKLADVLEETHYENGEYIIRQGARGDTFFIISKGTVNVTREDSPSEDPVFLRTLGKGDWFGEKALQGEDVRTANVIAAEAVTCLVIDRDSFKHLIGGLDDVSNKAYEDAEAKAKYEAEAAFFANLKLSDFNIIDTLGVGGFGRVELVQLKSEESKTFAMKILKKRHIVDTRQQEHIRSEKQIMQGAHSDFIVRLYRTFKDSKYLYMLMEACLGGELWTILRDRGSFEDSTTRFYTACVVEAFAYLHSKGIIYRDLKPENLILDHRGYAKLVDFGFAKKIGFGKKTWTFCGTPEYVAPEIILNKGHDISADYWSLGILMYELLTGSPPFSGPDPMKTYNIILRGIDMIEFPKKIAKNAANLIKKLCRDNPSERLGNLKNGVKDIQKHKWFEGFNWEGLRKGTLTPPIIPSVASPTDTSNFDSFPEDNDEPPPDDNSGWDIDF

[2] = biological target: Rho-associated protein kinase 2 (Homo sapiens) (UniProt O75116); assay: Inhibition of ROCK2 (unknown origin) at 0.078 uM relative to control
[3] = biological target: T2, Calcium/calmodulin-dependent protein kinase type IV (Homo sapiens) (UniProt Q16566); assay: Inhibition of CAMK4 (unknown origin) at 0.078 uM relative to control
T2 sequence (whole entry): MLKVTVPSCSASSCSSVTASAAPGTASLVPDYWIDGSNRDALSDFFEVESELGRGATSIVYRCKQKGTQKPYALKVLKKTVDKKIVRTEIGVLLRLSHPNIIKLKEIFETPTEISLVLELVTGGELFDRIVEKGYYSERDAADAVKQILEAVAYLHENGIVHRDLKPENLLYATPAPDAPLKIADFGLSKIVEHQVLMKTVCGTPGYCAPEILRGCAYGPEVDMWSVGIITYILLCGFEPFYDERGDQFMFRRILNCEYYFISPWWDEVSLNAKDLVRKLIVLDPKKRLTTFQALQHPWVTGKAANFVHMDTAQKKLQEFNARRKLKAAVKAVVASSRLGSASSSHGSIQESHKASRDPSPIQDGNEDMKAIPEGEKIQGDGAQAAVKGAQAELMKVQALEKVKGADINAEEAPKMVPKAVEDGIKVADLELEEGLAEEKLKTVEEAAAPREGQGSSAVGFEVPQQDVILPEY

[4] = biological target: MAP kinase-activated protein kinase 2 (Homo sapiens) (UniProt P49137); assay: Inhibition of MAPKAPK2 (unknown origin) at 0.078 uM relative to control
[5] = biological target: cAMP-dependent protein kinase catalytic subunit PRKX (Homo sapiens) (UniProt P51817); assay: Inhibition of PRKX (unknown origin) at 0.49 uM relative to control
[6] = biological target: T3, Serine/threonine-protein kinase Sgk1 (Homo sapiens) (UniProt O00141); assay: Inhibition of SGK1 (unknown origin) at 0.49 uM relative to control
T3 sequence (whole entry): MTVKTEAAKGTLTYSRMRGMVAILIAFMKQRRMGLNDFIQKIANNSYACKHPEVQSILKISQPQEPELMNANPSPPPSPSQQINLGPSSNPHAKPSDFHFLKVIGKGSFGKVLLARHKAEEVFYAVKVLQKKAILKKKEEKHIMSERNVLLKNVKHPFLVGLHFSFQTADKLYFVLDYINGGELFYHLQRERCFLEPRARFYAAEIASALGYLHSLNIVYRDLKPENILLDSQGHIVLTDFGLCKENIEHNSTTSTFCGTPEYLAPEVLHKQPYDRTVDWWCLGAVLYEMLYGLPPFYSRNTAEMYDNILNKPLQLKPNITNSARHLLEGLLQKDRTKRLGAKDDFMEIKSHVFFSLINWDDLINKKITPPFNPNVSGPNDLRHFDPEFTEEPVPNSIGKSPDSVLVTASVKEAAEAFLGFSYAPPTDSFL

[7] = biological target: T4, Aurora kinase A (Homo sapiens) (UniProt O14965); assay: Inhibition of AurA (unknown origin) at 0.49 uM relative to control
T4 sequence (whole entry): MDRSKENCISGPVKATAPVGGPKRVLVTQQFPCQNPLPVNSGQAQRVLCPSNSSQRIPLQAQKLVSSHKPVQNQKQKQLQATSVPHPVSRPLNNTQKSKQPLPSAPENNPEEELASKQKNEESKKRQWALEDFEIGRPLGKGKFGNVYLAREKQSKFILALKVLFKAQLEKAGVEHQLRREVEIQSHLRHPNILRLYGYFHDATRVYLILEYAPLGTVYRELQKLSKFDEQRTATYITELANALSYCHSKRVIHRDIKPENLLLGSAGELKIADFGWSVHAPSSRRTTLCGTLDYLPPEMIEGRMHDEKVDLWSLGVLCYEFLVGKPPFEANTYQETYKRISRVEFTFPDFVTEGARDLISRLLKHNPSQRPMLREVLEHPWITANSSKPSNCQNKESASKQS

[8] = biological target: Serine/threonine-protein kinase Nek9 (Homo sapiens) (UniProt Q8TD19); assay: Inhibition of NEK9 (unknown origin) at 0.49 uM relative to control
Sequence of Serine/threonine-protein kinase Nek9 (Homo sapiens) (Q8TD19 whole entry): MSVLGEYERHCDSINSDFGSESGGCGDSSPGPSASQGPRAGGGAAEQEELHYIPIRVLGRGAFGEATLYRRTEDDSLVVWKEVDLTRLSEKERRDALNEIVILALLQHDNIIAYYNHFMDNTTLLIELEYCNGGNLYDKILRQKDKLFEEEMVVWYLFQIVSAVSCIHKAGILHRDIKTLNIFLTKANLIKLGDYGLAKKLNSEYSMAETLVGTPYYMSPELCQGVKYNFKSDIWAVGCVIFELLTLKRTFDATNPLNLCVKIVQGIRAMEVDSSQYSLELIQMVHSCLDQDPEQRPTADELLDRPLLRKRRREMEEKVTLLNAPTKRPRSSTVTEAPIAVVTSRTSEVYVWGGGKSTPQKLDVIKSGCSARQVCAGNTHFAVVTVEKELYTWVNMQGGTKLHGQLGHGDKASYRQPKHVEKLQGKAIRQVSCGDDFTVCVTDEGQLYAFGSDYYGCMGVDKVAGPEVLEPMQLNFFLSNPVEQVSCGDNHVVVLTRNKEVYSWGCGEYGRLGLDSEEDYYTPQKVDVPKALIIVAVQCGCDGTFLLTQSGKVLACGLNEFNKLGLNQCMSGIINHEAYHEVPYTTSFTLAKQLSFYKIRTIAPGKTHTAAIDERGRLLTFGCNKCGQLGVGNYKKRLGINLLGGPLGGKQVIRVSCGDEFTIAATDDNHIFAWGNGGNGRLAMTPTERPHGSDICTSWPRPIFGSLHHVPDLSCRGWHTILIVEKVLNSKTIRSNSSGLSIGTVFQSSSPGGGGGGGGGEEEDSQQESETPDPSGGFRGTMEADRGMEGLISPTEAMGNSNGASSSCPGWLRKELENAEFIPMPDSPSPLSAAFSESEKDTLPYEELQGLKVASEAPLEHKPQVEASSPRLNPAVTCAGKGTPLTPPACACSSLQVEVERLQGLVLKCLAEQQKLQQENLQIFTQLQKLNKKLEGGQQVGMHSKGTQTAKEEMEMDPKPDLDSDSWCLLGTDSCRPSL

[9] = biological target: MAP kinase-interacting serine/threonine-protein kinase 1 (Homo sapiens) (UniProt Q9BUB5); assay: Inhibition of MNK1 (unknown origin) at 0.49 uM relative to control
Sequence of MAP kinase-interacting serine/threonine-protein kinase 1 (Homo sapiens) (Q9BUB5 whole entry, looked up): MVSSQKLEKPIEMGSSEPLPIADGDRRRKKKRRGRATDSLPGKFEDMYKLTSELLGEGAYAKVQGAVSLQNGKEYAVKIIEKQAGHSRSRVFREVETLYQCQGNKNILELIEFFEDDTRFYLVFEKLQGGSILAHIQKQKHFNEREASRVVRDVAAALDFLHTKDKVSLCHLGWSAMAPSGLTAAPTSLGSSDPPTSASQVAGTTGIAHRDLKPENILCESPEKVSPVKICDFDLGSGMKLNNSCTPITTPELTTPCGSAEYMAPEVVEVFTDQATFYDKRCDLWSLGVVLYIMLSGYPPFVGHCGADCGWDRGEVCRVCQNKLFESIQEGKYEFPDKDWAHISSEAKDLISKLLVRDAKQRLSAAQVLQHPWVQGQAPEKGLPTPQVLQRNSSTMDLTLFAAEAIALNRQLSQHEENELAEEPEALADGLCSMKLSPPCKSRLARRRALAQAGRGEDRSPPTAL

[10] = biological target: RAC-beta serine/threonine-protein kinase (Homo sapiens) (UniProt P31751); assay: Inhibition of AKT2 (unknown origin) at 0.45 uM relative to control
Sequence of RAC-beta serine/threonine-protein kinase (Homo sapiens) (P31751 whole entry): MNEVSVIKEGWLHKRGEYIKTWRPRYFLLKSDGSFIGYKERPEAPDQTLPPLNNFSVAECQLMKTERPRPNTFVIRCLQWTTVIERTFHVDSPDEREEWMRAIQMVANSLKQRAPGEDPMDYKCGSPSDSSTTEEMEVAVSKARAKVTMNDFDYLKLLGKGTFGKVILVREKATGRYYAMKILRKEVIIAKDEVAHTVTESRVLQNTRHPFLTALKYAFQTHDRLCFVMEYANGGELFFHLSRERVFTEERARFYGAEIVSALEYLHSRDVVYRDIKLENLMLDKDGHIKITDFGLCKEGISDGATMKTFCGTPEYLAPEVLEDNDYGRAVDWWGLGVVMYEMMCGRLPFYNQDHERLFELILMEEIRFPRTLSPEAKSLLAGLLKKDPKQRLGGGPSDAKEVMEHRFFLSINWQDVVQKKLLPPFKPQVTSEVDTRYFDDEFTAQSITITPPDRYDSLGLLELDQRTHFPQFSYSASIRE

[11] = biological target: MAP kinase-interacting serine/threonine-protein kinase 1 (Homo sapiens) (UniProt Q9BUB5); assay: Inhibition of MNK1 (unknown origin) at 0.45 uM relative to control
[12] = system: Tyrosine-protein kinase ABL1 (Homo sapiens), P00519 [Q252H]; assay: Inhibition of Abl Q252H mutant (unknown origin) at 0.45 uM relative to control
[13] = biological target: Tyrosine-protein kinase BTK (Homo sapiens) (UniProt Q06187); assay: Inhibition of BTK (unknown origin) at 0.45 uM relative to control
[14] = system: Epidermal growth factor receptor (Homo sapiens), P00533 [T790M]; assay: Inhibition of EGFR T790M mutant (unknown origin) at 0.45 uM relative to control
[15] = biological target: Tyrosine-protein kinase Srms (Homo sapiens) (UniProt Q9H3Y6); assay: Inhibition of SRM (SRMS) (unknown origin) at 0.45 uM relative to control
Sequence of Tyrosine-protein kinase Srms (Homo sapiens) (Q9H3Y6 whole entry): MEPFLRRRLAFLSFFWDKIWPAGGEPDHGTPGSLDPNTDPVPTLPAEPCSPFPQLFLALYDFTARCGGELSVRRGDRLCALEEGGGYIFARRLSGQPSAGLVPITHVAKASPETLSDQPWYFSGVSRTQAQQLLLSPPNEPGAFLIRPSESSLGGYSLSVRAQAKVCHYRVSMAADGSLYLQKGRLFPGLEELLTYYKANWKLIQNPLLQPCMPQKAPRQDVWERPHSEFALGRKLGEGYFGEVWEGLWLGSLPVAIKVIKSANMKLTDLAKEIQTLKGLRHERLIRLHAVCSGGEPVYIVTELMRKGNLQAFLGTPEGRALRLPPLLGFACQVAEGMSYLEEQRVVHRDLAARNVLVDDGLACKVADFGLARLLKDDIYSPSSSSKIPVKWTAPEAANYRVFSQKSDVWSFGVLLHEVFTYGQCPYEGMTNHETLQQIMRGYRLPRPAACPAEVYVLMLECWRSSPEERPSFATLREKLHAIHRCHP

[16] = system: Leucine-rich repeat serine/threonine-protein kinase 2 (Homo sapiens), Q5S007 [G2019S]; assay: Inhibition of LRRK2 G2019S mutant (unknown origin) at 0.45 uM relative to control
Sequence of Leucine-rich repeat serine/threonine-protein kinase 2 (Homo sapiens), Q5S007 [G2019S] (Q5S007 whole entry G2019S): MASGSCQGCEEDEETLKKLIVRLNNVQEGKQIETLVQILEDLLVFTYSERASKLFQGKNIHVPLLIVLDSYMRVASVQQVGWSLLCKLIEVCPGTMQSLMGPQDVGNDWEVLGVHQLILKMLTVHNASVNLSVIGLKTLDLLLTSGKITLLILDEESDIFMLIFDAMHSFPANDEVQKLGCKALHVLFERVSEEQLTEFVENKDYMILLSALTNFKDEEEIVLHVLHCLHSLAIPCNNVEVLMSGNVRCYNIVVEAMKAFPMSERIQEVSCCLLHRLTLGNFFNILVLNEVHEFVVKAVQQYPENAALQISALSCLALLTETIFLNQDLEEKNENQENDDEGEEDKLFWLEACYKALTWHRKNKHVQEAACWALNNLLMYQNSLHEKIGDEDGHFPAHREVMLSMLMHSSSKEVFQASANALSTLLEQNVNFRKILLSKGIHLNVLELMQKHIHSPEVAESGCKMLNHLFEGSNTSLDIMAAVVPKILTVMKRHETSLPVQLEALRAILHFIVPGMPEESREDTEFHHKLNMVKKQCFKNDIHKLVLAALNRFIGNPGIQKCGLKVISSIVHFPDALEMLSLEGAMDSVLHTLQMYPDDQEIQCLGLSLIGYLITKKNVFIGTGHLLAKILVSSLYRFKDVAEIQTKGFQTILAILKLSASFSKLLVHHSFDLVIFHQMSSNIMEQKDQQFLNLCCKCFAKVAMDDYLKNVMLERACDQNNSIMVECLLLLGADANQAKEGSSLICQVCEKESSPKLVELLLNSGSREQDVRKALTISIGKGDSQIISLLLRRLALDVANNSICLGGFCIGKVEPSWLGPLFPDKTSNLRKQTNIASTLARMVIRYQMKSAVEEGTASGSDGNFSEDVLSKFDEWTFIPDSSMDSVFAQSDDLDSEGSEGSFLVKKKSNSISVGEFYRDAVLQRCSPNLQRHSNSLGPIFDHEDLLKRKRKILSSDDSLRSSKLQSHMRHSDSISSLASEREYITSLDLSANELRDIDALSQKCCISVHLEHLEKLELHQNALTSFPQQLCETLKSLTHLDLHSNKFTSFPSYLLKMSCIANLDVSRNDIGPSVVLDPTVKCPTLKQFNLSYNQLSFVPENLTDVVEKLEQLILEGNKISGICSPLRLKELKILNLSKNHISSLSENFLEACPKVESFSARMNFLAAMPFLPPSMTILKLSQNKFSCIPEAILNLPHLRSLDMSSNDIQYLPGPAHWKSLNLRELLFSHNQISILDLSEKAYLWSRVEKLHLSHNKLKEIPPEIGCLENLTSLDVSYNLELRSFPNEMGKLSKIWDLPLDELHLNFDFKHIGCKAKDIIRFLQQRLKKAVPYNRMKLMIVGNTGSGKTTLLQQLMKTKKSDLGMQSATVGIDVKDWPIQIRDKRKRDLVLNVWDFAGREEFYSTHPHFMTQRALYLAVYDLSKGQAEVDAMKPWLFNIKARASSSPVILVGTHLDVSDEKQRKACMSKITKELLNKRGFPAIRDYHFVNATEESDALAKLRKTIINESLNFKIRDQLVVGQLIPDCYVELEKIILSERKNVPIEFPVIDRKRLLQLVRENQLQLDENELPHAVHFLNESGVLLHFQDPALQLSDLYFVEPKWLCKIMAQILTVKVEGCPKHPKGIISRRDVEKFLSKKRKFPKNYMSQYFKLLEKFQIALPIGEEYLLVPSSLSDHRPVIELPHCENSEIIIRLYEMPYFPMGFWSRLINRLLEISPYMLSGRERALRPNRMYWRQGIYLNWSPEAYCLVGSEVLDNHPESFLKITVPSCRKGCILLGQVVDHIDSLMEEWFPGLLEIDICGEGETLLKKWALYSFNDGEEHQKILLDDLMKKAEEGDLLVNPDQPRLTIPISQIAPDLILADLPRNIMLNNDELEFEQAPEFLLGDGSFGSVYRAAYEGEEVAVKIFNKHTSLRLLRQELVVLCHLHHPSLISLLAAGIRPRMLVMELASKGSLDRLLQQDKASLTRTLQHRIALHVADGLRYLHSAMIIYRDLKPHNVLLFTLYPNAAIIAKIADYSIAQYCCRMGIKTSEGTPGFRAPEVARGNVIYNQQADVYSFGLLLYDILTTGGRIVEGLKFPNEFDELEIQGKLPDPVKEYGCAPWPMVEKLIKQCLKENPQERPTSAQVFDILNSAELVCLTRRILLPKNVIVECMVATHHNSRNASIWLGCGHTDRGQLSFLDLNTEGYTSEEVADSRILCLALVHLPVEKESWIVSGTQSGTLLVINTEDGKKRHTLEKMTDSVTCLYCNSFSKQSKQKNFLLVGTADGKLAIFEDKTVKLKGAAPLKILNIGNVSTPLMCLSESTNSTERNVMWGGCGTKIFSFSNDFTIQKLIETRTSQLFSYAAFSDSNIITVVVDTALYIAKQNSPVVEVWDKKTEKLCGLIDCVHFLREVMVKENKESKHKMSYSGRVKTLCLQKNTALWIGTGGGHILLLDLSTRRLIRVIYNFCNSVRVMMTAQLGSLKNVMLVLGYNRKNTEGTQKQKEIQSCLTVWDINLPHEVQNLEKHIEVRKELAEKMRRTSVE

- inhibition [1]: -3.3%
- inhibition [2]: -2%
- inhibition [3]: 6.7%
- inhibition [4]: 4.7%
SMILES: COC(=O)Nc1noc2cc(-c3c(-c4ccccn4)n[nH]c3C)ccc12

- inhibition [5]: -1.7%
- inhibition [6]: 2.3%
- inhibition [7]: 5.7%
- inhibition [9]: 3%
SMILES: Cc1[nH]nc(C2CC2)c1-c1ccc2c(NC(=O)C3CC3)noc2c1
- inhibition [8]: 1.7%

- inhibition [10]: -2%
- inhibition [11]: 6.7%
- inhibition [12]: 72%
- inhibition [13]: 5%
- inhibition [14]: 0.7%
- inhibition [15]: 9%
- inhibition [16]: 18.7%
SMILES: Cc1n[nH]c(C)c1-c1ccc2c(NC(=O)c3ccc(N4CCN(C)CC4)cc3)n[nH]c2c1

From ChEMBL document CHEMBL4052759, “Discovery of DS79182026: A potent orally active hepcidin production inhibitor” (Bioorg Med Chem Lett, 2017)
